Source: PubChem BioAssay (NCI)
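96-well plates; 48 h exposure; 5 concentrations. Endpoints by linear interpolation between flanking doses. Not reached: highest tested concentration assigned. Abbreviation: GI50, concentration required for 50% inhibition of growth. TGI: concentration producing complete growth inhibition.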

Key:
Test in all cases: inhibition of tumour cell growth, NCI panel, 48 h
HT29 colon = test system: HT29 colon
RPMI-8226 leukemia = test system: RPMI-8226 leukemia
LOX IMVI melanoma = test system: LOX IMVI melanoma
OVCAR-8 ovarian = test system: OVCAR-8 ovarian
HOP-92 NSCLC = test system: HOP-92 NSCLC
IGROV1 ovarian = test system: IGROV1 ovarian
CCRF-CEM leukemia = test system: CCRF-CEM leukemia
OVCAR-5 ovarian = test system: OVCAR-5 ovarian
K-562 leukemia = test system: K-562 leukemia
M14 melanoma = test system: M14 melanoma

| SMILES | TGI (HT29 colon) | TGI (RPMI-8226 leukemia) | TGI (LOX IMVI melanoma) | TGI (OVCAR-8 ovarian) | TGI (HOP-92 NSCLC) | TGI (IGROV1 ovarian) | TGI (CCRF-CEM leukemia) | TGI (OVCAR-5 ovarian) | TGI (K-562 leukemia) | TGI (M14 melanoma) | GI50 (HT29 colon) | GI50 (RPMI-8226 leukemia) | GI50 (LOX IMVI melanoma) | GI50 (OVCAR-8 ovarian) | GI50 (HOP-92 NSCLC) | GI50 (IGROV1 ovarian) | GI50 (CCRF-CEM leukemia) | GI50 (OVCAR-5 ovarian) | GI50 (K-562 leukemia) | GI50 (M14 melanoma) |
| --- | --- | --- | --- | --- | --- | --- | --- | --- | --- | --- | --- | --- | --- | --- | --- | --- | --- | --- | --- | --- |
| CCN(CC)CC(C)(C)C(=O)/C=C/c1cccc(/C=C/C(=O)C(C)(C)CN(CC)CC)c1 | 1.08 µM | > 100 µM | 0.37 µM | 1.47 µM | 1.68 µM | 2.23 µM | 11.6 µM | 2.98 µM | > 100 µM | 2.82 µM |  |  |  |  |  |  |  |  |  |  |
| CC(C)N1CC2CN(Cc3ccccc3)CC(C1)C2=O | > 100 µM | > 100 µM | > 100 µM | > 100 µM | > 100 µM | > 100 µM | > 100 µM | > 100 µM | > 100 µM | > 100 µM |  |  |  |  |  |  |  |  |  |  |
| CCOC(=O)c1ccc2c(c1)Cc1cc([N+](=O)[O-])ccc1-2 | 86.4 µM | > 100 µM | > 100 µM | > 100 µM | > 100 µM | > 100 µM | > 100 µM | > 100 µM | > 100 µM | > 100 µM |  |  |  |  |  |  |  |  |  |  |
| Cc1ccc(NC(=O)c2ccc(CN3CCN(C)CC3)cc2)cc1Nc1nccc(-c2cccnc2)n1 | 24.1 µM | 28.1 µM | 34.8 µM | > 89.9 µM | 37.3 µM | 45.7 µM | 71.1 µM | 39.5 µM | 3.72 µM | 35.7 µM | 4880 nM | 7560 nM | 13.1 µM | 27 µM | 12.6 µM | 20.5 µM | 18400 nM | 2.08 µM | 41.4 nM | 19.1 µM |
| CCOC(=O)c1ccccc1OC(=O)NNc1ccccc1 | > 100 µM | > 100 µM | > 100 µM | > 100 µM | > 100 µM | > 100 µM | > 100 µM | > 100 µM | > 100 µM | > 100 µM | > 100000 nM | 1110 nM | 5 µM | 9.19 µM | 6.92 µM | 33.9 µM | 1800 nM | 5.34 µM | 225 nM |  |
| CO/C=C/C(=O)c1cc2cnc3c(=N)cc(NC(=O)C(C)C)c([nH]1)c23 | 0.721 µM | 0.0906 µM | 0.429 µM | 1.02 µM | 0.0456 µM | 0.138 µM | 4.94 µM | 7.41 µM | 17.4 µM | 0.529 µM | 80.1 nM | 14.9 nM | 0.0694 µM | 0.113 µM | 0.00796 µM | 0.0187 µM | 18.4 nM | 0.12 µM | 117 nM | 0.0703 µM |
| O=[N+]([O-])c1ccc(C2CC(c3ccccc3Cl)=Nc3ccccc3S2)cc1 (centres undefined) | 45.9 µM | 5.14 µM | 11.8 µM | 5.59 µM | 29.5 µM | 29.6 µM | 6.77 µM | 62.7 µM | 6.35 µM | 29.4 µM |  |  |  |  |  |  |  |  |  |  |
| CCCCCCCCOCC(O)COC(C)C (centres undefined) | > 100 µM | 51.9 µM | > 100 µM | > 100 µM | 81.8 µM | > 100 µM | 52.8 µM | > 100 µM | 96.6 µM | > 100 µM |  |  |  |  |  |  |  |  |  |  |
| CC(C)(C)N1CCC1CN (centres undefined) | > 100 µM | > 100 µM | > 100 µM | > 100 µM | > 100 µM | > 100 µM | > 100 µM | > 100 µM | > 100 µM | > 100 µM | > 100000 nM | > 100000 nM | > 100 µM | > 100 µM | > 100 µM | > 100 µM | > 100000 nM | > 100 µM | > 100000 nM | > 100 µM |
| COc1ccc(/C=C(/C(=O)N2CCN(c3ccccc3)CC2)c2cc(OC)c(OC)c(OC)c2)cc1N | 13.3 µM | 12 µM | > 100 µM | > 100 µM | > 100 µM | > 100 µM | > 100 µM | > 100 µM | > 100 µM | 3.58 µM | 366 nM | 327 nM | 0.696 µM | 0.375 µM | 3.53 µM | 0.697 µM | 301 nM | 0.569 µM | 316 nM | 0.254 µM |
| N.N.NCCCCCN.O=C([O-])CCl.O=C([O-])CCl.O=C([O-])CCl.O=C([O-])CCl.[Pt+4].[Pt+4] | 42.4 µM | > 100 µM | > 100 µM | > 100 µM | 51.6 µM | 67.3 µM | > 100 µM | 48.9 µM | > 100 µM | 33.5 µM | 9870 nM | 44900 nM | 5.93 µM | 14 µM | 23.7 µM | 18 µM | 1710 nM | 5.54 µM | 37200 nM | 9.28 µM |
| CSc1ccc(-c2ccccc(=O)c2O)cc1 | > 100 µM | 26.9 µM | 17.1 µM | 64.8 µM | 73.3 µM | > 100 µM | > 100 µM | > 100 µM | > 100 µM | 2.68 µM | 714 nM | 428 nM | 0.336 µM | 0.39 µM | 1.61 µM | 0.427 µM | 347 nM | 1.64 µM | 447 nM | 0.347 µM |
| O=c1cc(-c2ccccc2)oc2ccc(OC/C(=N/O)c3ccccc3)cc12 | > 50 µM | > 50 µM | 20.2 µM | > 50 µM | > 50 µM | > 50 µM | > 50 µM | > 50 µM | > 50 µM | > 50 µM | 2020 nM | 1830 nM | 2.76 µM | 3.82 µM | 25.2 µM | 7.62 µM | 1510 nM | 43.8 µM | 2530 nM | > 50 µM |
| CSC1=Nc2c(c(C)c(-c3ccccc3)n2CCCN2CCCCC2)C2=NC(=O)C[C@H](C)N12 | 10.9 µM | 2.25 µM | 13.4 µM | > 55.7 µM | 48.9 µM | 13.5 µM | 10.2 µM | > 100 µM | 87.6 µM | 16.1 µM | 2380 nM | 505 nM | 3.16 µM | 4.01 µM | 4.1 µM | 2.25 µM | 2680 nM | 11.3 µM | 5080 nM | 3.68 µM |
| COC(=O)C1=Cc2cc(OC)c(OC)c(OC)c2[C@H](c2cc(OC)c(OC)c(OC)c2)C1C(=O)OC (some centres undefined) | > 100 µM | > 100 µM | > 100 µM | > 100 µM | 74.5 µM | > 100 µM | > 100 µM | > 100 µM | > 100 µM | > 100 µM |  |  |  |  |  |  |  |  |  |  |
